Test results as given in US7655392B2, “Quenching methods for red blood cell inactivation process” (priority 2004, dated 2010).
Like-named read-outs stand apart in the source and are kept apart here.

Tests used:
[1] = tested on: Vesicular Stomatitis Virus (VSV); format: cell-based
red blood cells = tested on: red blood cells
Description: Methods for determining ATP, 2,3-DPG, glucose, hemoglobin, hemolysis, and potassium are available in the art. See for example, Davey et al., Transfusion, 32:525-528 (1992), the disclosure of which is incorporated herein. Methods for determining red blood cell function are also described in Greenwalt et al., Vox Sang, 58:94-99 (1990); Hogman et al., Vox Sang, 65:271-278 (1993); and Beutler et al., Blood, Vol. 59 (1982) the disclosures of which are incorporated herein by reference. For example, intracellular ATP and intracellular 2,3-DPG are measured using a Sigma ATP kit or 2,3-DPG kit (Sigma, St. Louis, Mo.). The ATP kit is used following Sigma procedure No. 366-UV, the disclosure of which is hereby incorporated by reference. […] The extracellular pH is measured by centrifuging the cells at 4° C. for 15 minutes at 12,000×g and removing the supernatant, for which the pH is measured using a standard pH meter at room temperature (e.g. Beckman, Epoxy Calomel electrode). For the intracellular pH, the remaining pellet is capped in the centrifuge tube and stored at about −80° C. for at least 2 hours. This is then lysed by the addition of deionized water. […] Measurements can be made shortly after treatment and as a function of post treatment storage, for example storage for up to 42 days.
Full units of red cell concentrates (Interstate Blood Bank, Inc., Memphis, Tenn.) were leukoreduced. A volume of 200 mL of this RCC (80% hematocrit) was mixed with 94 mL of Erythrosol or 100 mL of Adsol (Baxter Healthcare Corp., Deerfield, Ill.) as control (unit 1). A volume of 20 mL 8% dextrose was used to dissolve PIC-1 (mg) and acid glutathione (mg) and added to one unit to provide 0.2 mM PIC-1 and 2 mM glutathione (unit 2). […] For the glutathione, 1.2 mL of 10 N NaOH was added (2 equivalents). The PIC-1 was mixed with the unit, followed 1 minute later (unit 3) or 5 minutes later (unit 4) by glutathione. For unit 5, neutralized glutathione was mixed first, followed 10 minutes later by the PIC-1. […] All units were mixed by grasping the ends of the blood bag and mixing in a FIG. 8 motion 30 times. These were then incubated at room temperature for 20 hours total. A compound adsorption device (CAD), comprising a polymeric resin contained within a mesh pouch, was used for all but the control sample. This device is intended to remove residual PIC-1, PIC-1 breakdown products, and glutathione from the samples. Samples were incubated for 8 hours, then transferred to a second blood bag containing the CAD and incubated for an additional 12 hours. Following the room temperature incubation, samples were transferred to a refrigerator (4° C.) and stored up to 43 days. Aliquots were removed from each unit 12 hours and 20 hours post mixing, and every week thereafter. Aliquots were analyzed for total hemoglobin, pH, intracellular ATP, plasma hemoglobin, potassium, extracellular glucose and extracellular lactate.

[2] = Table 6A: 20 mM glutathione+2 eq base only, no PIC-1

N[C@@H](CCC(=O)N[C@@H](CS)C(=O)NCC(=O)O)C(=O)O [glutathione, γ-L-glutamyl-L-cysteinyl-glycine]
Log VSV reduction [1, 2]: −0.04 Log
Log VSV titer [1, 2]: 6.25 Log
Percent Hemolysis (red blood cells; 16B day 0, sample 6: 0.2 mM GSH+2 eq base, no PIC-1): 0.15%
Percent Hemolysis (red blood cells; 16B day 0.5, sample 6: 0.2 mM GSH+2 eq base, no PIC-1): 0.19%
Percent Hemolysis (red blood cells; 16B day 0.8, sample 6: 0.2 mM GSH+2 eq base, no PIC-1): 0.51%
Percent Hemolysis (red blood cells; 16B day 7, sample 6: 0.2 mM GSH+2 eq base, no PIC-1): 0.58%
Percent Hemolysis (red blood cells; 16B day 14, sample 6: 0.2 mM GSH+2 eq base, no PIC-1): 0.61%
Percent Hemolysis (red blood cells; 16B day 22, sample 6: 0.2 mM GSH+2 eq base, no PIC-1): 0.60%
Percent Hemolysis (red blood cells; 16B day 28, sample 6: 0.2 mM GSH+2 eq base, no PIC-1): 0.71%
Percent Hemolysis (red blood cells; 16B day 35, sample 6: 0.2 mM GSH+2 eq base, no PIC-1): 0.70%
Percent Hemolysis (red blood cells; 16B day 43, sample 6: 0.2 mM GSH+2 eq base, no PIC-1): 0.75%

O=C(CCNc1c2ccccc2nc2ccccc12)OCCN(CCCl)CCCl [PIC-1]
inactivation of a high titer of VSV [1]: essentially complete inactivation
Percent Hemolysis (red blood cells; 16B day 0, sample 2: standard 0.2 mM PIC-1+2 mM GSH): 0.22%
Percent Hemolysis (red blood cells; 16B day 0, sample 3: 0.2 mM PIC-1, 1' delay, 20 mM GSH+2 eq base): 0.19%
Percent Hemolysis (red blood cells; 16B day 0, sample 4: 0.2 mM PIC-1, 5' delay, 20 mM GSH+2 eq base): 0.19%
Percent Hemolysis (red blood cells; 16B day 0, sample 5: 20 mM GSH+2 eq base, 10' delay, 0.2 mM PIC-1): 0.19%
Percent Hemolysis (red blood cells; 16B day 0.5, sample 2: standard 0.2 mM PIC-1+2 mM GSH): 0.24%
Percent Hemolysis (red blood cells; 16B day 0.5, sample 3: 0.2 mM PIC-1, 1' delay, 20 mM GSH+2 eq base): 0.16%
Percent Hemolysis (red blood cells; 16B day 0.5, sample 4: 0.2 mM PIC-1, 5' delay, 20 mM GSH+2 eq base): 0.25%
Percent Hemolysis (red blood cells; 16B day 0.5, sample 5: 20 mM GSH+2 eq base, 10' delay, 0.2 mM PIC-1): 0.24%
Percent Hemolysis (red blood cells; 16B day 0.8, sample 2: standard 0.2 mM PIC-1+2 mM GSH): 0.46%
Percent Hemolysis (red blood cells; 16B day 0.8, sample 3: 0.2 mM PIC-1, 1' delay, 20 mM GSH+2 eq base): 0.40%
Percent Hemolysis (red blood cells; 16B day 0.8, sample 4: 0.2 mM PIC-1, 5' delay, 20 mM GSH+2 eq base): 0.48%
Percent Hemolysis (red blood cells; 16B day 0.8, sample 5: 20 mM GSH+2 eq base, 10' delay, 0.2 mM PIC-1): 0.47%
Percent Hemolysis (red blood cells; 16B day 7, sample 2: standard 0.2 mM PIC-1+2 mM GSH): 0.62%
Percent Hemolysis (red blood cells; 16B day 7, sample 3: 0.2 mM PIC-1, 1' delay, 20 mM GSH+2 eq base): 0.35%
Percent Hemolysis (red blood cells; 16B day 7, sample 4: 0.2 mM PIC-1, 5' delay, 20 mM GSH+2 eq base): 0.52%
Percent Hemolysis (red blood cells; 16B day 7, sample 5: 20 mM GSH+2 eq base, 10' delay, 0.2 mM PIC-1): 0.57%
Percent Hemolysis (red blood cells; 16B day 14, sample 2: standard 0.2 mM PIC-1+2 mM GSH): 0.69%
Percent Hemolysis (red blood cells; 16B day 14, sample 3: 0.2 mM PIC-1, 1' delay, 20 mM GSH+2 eq base): 0.50%
Percent Hemolysis (red blood cells; 16B day 14, sample 4: 0.2 mM PIC-1, 5' delay, 20 mM GSH+2 eq base): 0.52%
Percent Hemolysis (red blood cells; 16B day 14, sample 5: 20 mM GSH+2 eq base, 10' delay, 0.2 mM PIC-1): 0.55%
Percent Hemolysis (red blood cells; 16B day 22, sample 2: standard 0.2 mM PIC-1+2 mM GSH): 0.87%
Percent Hemolysis (red blood cells; 16B day 22, sample 3: 0.2 mM PIC-1, 1' delay, 20 mM GSH+2 eq base): 0.59%
Percent Hemolysis (red blood cells; 16B day 22, sample 4: 0.2 mM PIC-1, 5' delay, 20 mM GSH+2 eq base): 0.62%
Percent Hemolysis (red blood cells; 16B day 22, sample 5: 20 mM GSH+2 eq base, 10' delay, 0.2 mM PIC-1): 0.63%
Percent Hemolysis (red blood cells; 16B day 28, sample 2: standard 0.2 mM PIC-1+2 mM GSH): 0.86%
Percent Hemolysis (red blood cells; 16B day 28, sample 3: 0.2 mM PIC-1, 1' delay, 20 mM GSH+2 eq base): 0.63%
Percent Hemolysis (red blood cells; 16B day 28, sample 4: 0.2 mM PIC-1, 5' delay, 20 mM GSH+2 eq base): 0.64%
Percent Hemolysis (red blood cells; 16B day 28, sample 5: 20 mM GSH+2 eq base, 10' delay, 0.2 mM PIC-1): 0.65%
Percent Hemolysis (red blood cells; 16B day 35, sample 2: standard 0.2 mM PIC-1+2 mM GSH): 0.99%
Percent Hemolysis (red blood cells; 16B day 35, sample 3: 0.2 mM PIC-1, 1' delay, 20 mM GSH+2 eq base): 0.74%
Percent Hemolysis (red blood cells; 16B day 35, sample 4: 0.2 mM PIC-1, 5' delay, 20 mM GSH+2 eq base): 0.76%
Percent Hemolysis (red blood cells; 16B day 35, sample 5: 20 mM GSH+2 eq base, 10' delay, 0.2 mM PIC-1): 0.71%
Percent Hemolysis (red blood cells; 16B day 43, sample 2: standard 0.2 mM PIC-1+2 mM GSH): 1.17%
Percent Hemolysis (red blood cells; 16B day 43, sample 3: 0.2 mM PIC-1, 1' delay, 20 mM GSH+2 eq base): 0.82%
Percent Hemolysis (red blood cells; 16B day 43, sample 4: 0.2 mM PIC-1, 5' delay, 20 mM GSH+2 eq base): 0.90%
Percent Hemolysis (red blood cells; 16B day 43, sample 5: 20 mM GSH+2 eq base, 10' delay, 0.2 mM PIC-1): 0.83%
